For test [1], the target named is T1, Adenosine A2a receptor (human) membrane (Homo sapiens, UniProt P29274).
T1 construct: purchased PerkinElmer RBHA2AM400UA
Description: Determination of competitive inhibition constant (Ki) for adenosine A2a receptor, [3H]-CGS-21680 radioligand. The format is binding. The settings on record: for Ki(A1)/Ki(A2a): selectivity ratio A1 over A2a. Here is the method: (§1) Test Example 1: Determination of Competitive Inhibition Constant (Ki) for Adenosine A1 and A2a Receptors
Adenosine A2a receptor (human) membrane (PerkinElmer, RBHA2AM400UA),
assay buffer for A2a (50 mM Tris-HCl, 10 mM MgCl2, 1 mM EDTA, pH7.4), used to dilute adenosine A2a receptor (human) membrane (human origin) and [^3H]-CGS-21680; and
wash buffer for A2a (50 mM Tris-HCl, 154 mM NaCl, pH7.4).
(§2) Adenosine A1 receptor membrane was diluted to 0.025 μg/μl with assay buffer for A1, and Adenosine A2a receptor membrane was diluted to 0.05 μg/μl with assay buffer for A2a, so as to obtain Adenosine A1 receptor membrane dilution and Adenosine A2a receptor membrane dilution.
(§3) The compound to be tested and CGS-15943 were diluted with DMSO, and 1 W of the compound to be tested, high value control (0.5% DMSO), low value control (1000 nM CGS-15943) were added to a 96-well plate, and 100 W of Adenosine A1 receptor membrane dilution (containing 2.5 μg of membrane) was added to each well of the 96-well plate to obtain A1 detection plate; following the same steps, 100 W of Adenosine A2a receptor membrane dilution (containing 5.0 μg membrane) was added to each well of the 96-well plate to obtain A2a detection plate.
(§4) To the A1 detection plate, 100 μl of radioisotope-labeled ligand [^3H]-DPCPX (diluted with assay buffer for A1, working concentration of which was 1.0 nM) was added; and to the A2a detection plate, 100 μl of radioisotope-labeled ligand [^3H]-CGS-21680 (diluted with assay buffer for A2a, working concentration of which was 6.0 nM) was added. The A1 and A2a detection plates were sealed with tape, and incubated at room temperature for 1 h and 2 h, respectively.
(§5) Unifilter-96 GF/C filter plates were prepared, 50 μl of 0.3% PEI was added to each well of the Unifilter-96 GF/C filter plates, and the resulting filter plates were incubated at room temperature for not less than 0.5 h.
(§6) After the incubation was completed, the reaction solution was transferred from the A1 detection plate and the A2a detection plate to two Unifilter-96 GF/C filter plates, and washed with pre-cooled wash buffer for A1 and wash buffer for A2a, and then the filter plates were dried, sealed at bottom, then 50 W of Microscint 20 fluid scintillation cocktail was added, and then the filter plates were sealed at top, and counted by MicroBeta2 Reader.
(§7) Inhibition rate %=100−(signal value of test well−signal average value of low value control)/(signal average value of high value control−signal average value of low value control)*100.
(§8) EXCEL XLfit was used to fit IC50.
(§9) The calculation formula for competitive inhibition constant (Ki) was: Ki=IC50/(1+concentration of isotope-labeled ligand/Kd), wherein Kd was the dissociation constant of the isotope-labeled ligand.

The target of test [2] is T2, Adenosine A1 receptor (human) membrane (Homo sapiens, UniProt P30542).
T2 construct: purchased PerkinElmer ES-010-M400UA
T2 sequence (P30542 1-326): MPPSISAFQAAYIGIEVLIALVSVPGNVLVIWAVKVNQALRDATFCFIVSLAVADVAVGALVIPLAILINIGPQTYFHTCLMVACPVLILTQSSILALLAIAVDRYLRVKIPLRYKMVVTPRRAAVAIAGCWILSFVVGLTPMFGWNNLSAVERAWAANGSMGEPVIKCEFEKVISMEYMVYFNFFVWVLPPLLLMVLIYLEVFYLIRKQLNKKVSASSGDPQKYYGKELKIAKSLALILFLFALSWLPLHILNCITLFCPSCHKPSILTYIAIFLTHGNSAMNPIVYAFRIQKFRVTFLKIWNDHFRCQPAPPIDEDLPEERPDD
Description: Determination of competitive inhibition constant (Ki) for adenosine A1 receptor, [3H]-DPCPX radioligand. The format is binding. The settings on record: 1.0 nM [3H]-DPCPX. Here is the method: as §1
[^3H]-DPCPX (PerkinElmer, NET974250UC),
Adenosine A1 receptor (human) membrane (PerkinElmer, ES-010-M400UA),
assay buffer for A1 (25 mM HEPES, 5 mM MgCl2, 1 mM CaCl2, 100 mM NaCl, pH7.4), used to dilute adenosine A1 receptor (human) membrane and [^3H]-DPCPX;
wash buffer for A1 (25 mM HEPES, 5 mM MgCl2, 1 mM CaCl2, 100 mM NaCl, pH7.4);
as §2, §3, §4, §5, §6, §7, §8, §9

The mark [3] stands for this setting: human A2a receptor membrane, 6.0 nM [3H]-CGS-21680, read-out: Ki(A2a).

These results are taken from patent publication US20210395226A1, “SUBSTITUTED ARYL COMPOUND AND PREPARATION METHOD THEREFOR AND USE THEREOF” (SICHUAN KELUN-BIOTECH BIOPHARMACEUTICAL CO., LTD., priority 2018, published 2021).

Usually Ki stands for a measure of affinity in units of concentration, obtained from inhibition or displacement.

Where two headings read alike, the source gives them in different places.

T1 sequence (P29274 whole entry): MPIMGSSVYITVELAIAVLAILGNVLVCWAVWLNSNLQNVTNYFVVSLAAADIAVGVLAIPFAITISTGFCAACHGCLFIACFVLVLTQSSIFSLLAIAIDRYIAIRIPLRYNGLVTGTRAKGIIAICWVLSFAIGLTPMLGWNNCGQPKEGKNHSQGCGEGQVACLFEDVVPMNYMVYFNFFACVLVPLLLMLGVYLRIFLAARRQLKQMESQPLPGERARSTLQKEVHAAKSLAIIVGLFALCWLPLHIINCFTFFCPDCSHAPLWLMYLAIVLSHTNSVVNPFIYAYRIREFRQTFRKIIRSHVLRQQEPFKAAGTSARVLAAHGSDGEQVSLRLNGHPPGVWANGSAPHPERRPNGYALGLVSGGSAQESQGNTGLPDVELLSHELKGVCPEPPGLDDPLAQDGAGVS

On to `Cc1ccc(-c2nc(NC(=O)N3CCC(N4CCCCC4)CC3)nnc2-c2ccc3ncnc(C)c3c2)o1` [Compound 27, N-(5-(5-methylfuran-2-yl)-6-(4-methylquinazolin-6-yl)-1,2,4-triazin-3-yl)-[1,4′-bipiperidine]-1′-carboxamide], for which the inhibitory constant (Ki) in test [1] (setting [3]) came out at 4 nM; in test [2], 422 nM. The “Ki(A1)/Ki(A2a)” value in test [1] turned out to be 105.5.

As for `Cc1cc(Cl)cc(-c2nnc(NC(=O)N3CCC(N4CCCCC4)CC3)nc2-c2ccc(C)o2)c1` [Compound 28, N-(6-(3-chloro-5-methylphenyl)-5-(5-methylfuran-2-yl)-1,2,4-triazin-3-yl)-[1,4′-bipiperidine]-1′-carboxamide], the figures for the inhibition constant Ki in test [1] (setting [3]) and in test [2] were 9 nM and 1780 nM, respectively. The “Ki(A1)/Ki(A2a)” value in test [1] came to 197.5.

Consider `Cc1ncnc2ccc(-c3ccc(NC(=O)N(C)Cc4ccccn4)nc3-c3ccc(F)cc3)cc12` [Compound 29, 3-(6-(4-fluorophenyl)-5-(4-methylquinazolin-6-yl)pyridin-2-yl)-1-methyl-1-(pyridine-2-methyl)urea], for which, in test [1], the affinity, expressed as Ki, was 11.8 nM and the “Ki(A1)/Ki(A2a)” value was determined as 425.9. Besides, in test [2], affinity was put at a Ki of 5030 nM.

Turning to `Cc1ncnc2ccc(-c3cnc(NC(=O)N4CCN(C)CC4)nc3-c3ccc(F)cc3)cc12` [Compound 30, N-(4-(4-fluorophenyl)-5-(4-methylquinazolin-6-yl)pyrimidin-2-yl)-4-methylpiperazine-1-carboxamide], the Ki in test [1] (setting [3]) stood at 21.2 nM; in test [2] it was 1590 nM. The “Ki(A1)/Ki(A2a)” value in test [1] is 75.0.

In the case of `COCCN(C)C(=O)Nc1ncc(-c2ccc3ncnc(C)c3c2)c(-c2ccc(F)cc2)n1` [Compound 31, 3-(4-(4-fluorophenyl)-5-(4-methylquinazolin-6-yl)pyrimidin-2-yl)-1-(2-methoxyethyl)-1-methylurea], the values for the Ki in test [1] (setting [3]) and in test [2] were 27.7 nM and 3330 nM, respectively. Further, the “Ki(A1)/Ki(A2a)” value in test [1] was 120.1.

Take `Cc1ncnc2ccc(-c3cnc(NC(=O)N4CCO[C@@H](C)C4)nc3-c3ccc(F)cc3)cc12` [Compound 34, (S)-N-(4-(4-fluorophenyl)-5-(4-methylquinazolin-6-yl)pyrimidin-2-yl)-2-methylmorpholine-4-carboxamide]: the Ki in test [1] (setting [3]) is 12.6 nM; in test [2], 538 nM. Also, in test [1], the “Ki(A1)/Ki(A2a)” value worked out at 42.7.

As to `Cc1cc(-c2cnc(NC(=O)N3CCCCC3)nc2-c2ccc(F)cc2)cc(Cl)n1` [Compound 35, N-(5-(2-chloro-6-methylpyridin-4-yl)-4-(4-fluorophenyl)pyrimidin-2-yl) piperidine-1-carboxamide], the inhibition constant (Ki) worked out at 14.7 nM in test [1] (setting [3]) and 1870 nM in test [2]. In addition, the “Ki(A1)/Ki(A2a)” value in test [1] is reported as 126.9.

As for `Cc1cc(-c2cnc(NC(=O)N3CCO[C@@H](C)C3)nc2-c2ccc(F)cc2)cc(Cl)n1` [Compound 36, (S)-N-(5-(2-chloro-6-methylpyridin-4-yl)-4-(4-fluorophenyl)pyrimidin-2-yl)-2-methylmorpholine-4-carboxamide], the Ki is 10.6 nM in test [1] (setting [3]) and 583 nM in test [2]. Moreover, the “Ki(A1)/Ki(A2a)” value in test [1] is recorded as 55.0.

As for `Cc1cc(-c2cnc(NC(=O)N3C[C@@H](C)O[C@@H](C)C3)nc2-c2ccc(F)cc2)cc(Cl)n1` [Compound 37, (2R,6S)-N-(5-(2-chloro-6-methylpyridin-4-yl)-4-(4-fluorophenyl)pyrimidin-2-yl)-2,6-dimethylmorpholine-4-carboxamide], the Ki in test [1] (setting [3]) amounted to 23.3 nM; in test [2] it was 4050 nM. Also, the “Ki(A1)/Ki(A2a)” value in test [1] turned out to be 173.7.

In the case of `Cc1cc(-c2cnc(NC(=O)N3CCO[C@H](C)C3)nc2-c2ccc(F)cc2)cc(Cl)n1` [Compound 38, (R)-N-(5-(2-chloro-6-methylpyridin-4-yl)-4-(4-fluorophenyl)pyrimidin-2-yl)-2-methylmorpholine-4-carboxamide], the Ki in test [1] (setting [3]) turned out to be 13.1 nM; in test [2], 1410 nM. Further, the “Ki(A1)/Ki(A2a)” value in test [1] amounted to 107.4.

As to `Cc1ncnc2ccc(-c3cnc(NC(=O)N4C[C@@H](C)O[C@@H](C)C4)nc3-c3ccc(F)cc3)cc12` [Compound 39, (2R,6S)-N-(4-(4-fluorophenyl)-5-(4-methylquinazolin-6-yl)pyrimidin-2-yl)-2,6-dimethylmorpholine-4-carboxamide], the inhibition constant (Ki) in test [1] (setting [3]) came out at 11 nM; in test [2], 814 nM. Further, in test [1], the “Ki(A1)/Ki(A2a)” value is given as 74.0.

As to `Cc1ncnc2ccc(-c3cnc(NC(=O)N4CCO[C@H](C)C4)nc3-c3ccc(F)cc3)cc12` [Compound 40, (R)-N-(4-(4-fluorophenyl)-5-(4-methylquinazolin-6-yl)pyrimidin-2-yl)-2-methylmorpholine-4-carboxamide], the figures for the Ki in test [1] (setting [3]) and in test [2] were 5.4 nM and 411 nM, respectively. The “Ki(A1)/Ki(A2a)” value in test [1] came out at 76.2.

On to `Cc1ncnc2ccc(-c3ccc(NC(=O)N4CCOCC4)nc3-c3ccc(F)cc3)cc12` [Compound 41, N-(6-(4-fluorophenyl)-5-(4-methylquinazolin-6-yl)pyridin-2-yl)morpholine-4-carboxamide], for which the inhibition constant (Ki) in test [1] (setting [3]) is 1.92 nM; in test [2], 2530 nM. The “Ki(A1)/Ki(A2a)” value in test [1] is recorded as 1319.0.

As to `Cc1ncnc2ccc(-c3c(Cl)cc(NC(=O)N4CCOCC4)nc3-c3ccc(F)cc3)cc12` [Compound 42, N-(4-chloro-6-(4-fluorophenyl)-5-(4-methylquinazolin-6-yl)pyridin-2-yl) morpholine-4-carboxamide], the figures for the Ki in test [1] (setting [3]) and in test [2] were 2.3 nM and 333 nM, respectively. Further, the “Ki(A1)/Ki(A2a)” value in test [1] is reported as 144.6.

For `Cc1cc(-c2c(C#N)cc(NC(=O)N3CCOCC3)nc2-c2ccc(F)cc2)cc(Cl)n1` [Compound 45, N-(2′-chloro-4-cyano-2-(4-fluorophenyl)-6′-methyl-[3,4′-bipyridyl]-6-yl) morpholine-4-carboxamide], the inhibition constant (Ki) in test [1] (setting [3]) came to 11.8 nM; in test [2], 1370 nM. Besides, the “Ki(A1)/Ki(A2a)” value in test [1] turned out to be 115.3.

For the molecule `Cc1ccnc2ccc(-c3c(-c4ccc(F)cc4)nc(NC(=O)N4CCOCC4)nc3C3CC3)cc12` [Compound 47, N-(4-cyclopropyl-6-(4-fluorophenyl)-5-(4-methylquinolin-6-yl)pyrimidin-2-yl)morpholine-4-carboxamide], the Ki worked out at 5.13 nM in test [1] (setting [3]) and 217 nM in test [2]. In test [1], the “Ki(A1)/Ki(A2a)” value came to 42.4.
